Earlier results, collected in patent US20240156825A1, “USE OF SELECTIVE VEGFR2 AND FGFR1 INHIBITORS” (Fountain Therapeutics Inc., priority 2022, published 2024).
Read-outs that look alike come from different tables or passages of the source.

How the values were obtained:
any gene target = details: next lowest IC50 value to any gene target, read-out: Min IC50_μM, cited from earlier work
VEGFR2 = VEGFR2 (Homo sapiens, UniProt P35968); details: reported IC50 to VEGFR2, read-out: VEGFR2 IC50_μM, cited from earlier work
Chain of VEGFR2 (P35968 20-1356, species assumed): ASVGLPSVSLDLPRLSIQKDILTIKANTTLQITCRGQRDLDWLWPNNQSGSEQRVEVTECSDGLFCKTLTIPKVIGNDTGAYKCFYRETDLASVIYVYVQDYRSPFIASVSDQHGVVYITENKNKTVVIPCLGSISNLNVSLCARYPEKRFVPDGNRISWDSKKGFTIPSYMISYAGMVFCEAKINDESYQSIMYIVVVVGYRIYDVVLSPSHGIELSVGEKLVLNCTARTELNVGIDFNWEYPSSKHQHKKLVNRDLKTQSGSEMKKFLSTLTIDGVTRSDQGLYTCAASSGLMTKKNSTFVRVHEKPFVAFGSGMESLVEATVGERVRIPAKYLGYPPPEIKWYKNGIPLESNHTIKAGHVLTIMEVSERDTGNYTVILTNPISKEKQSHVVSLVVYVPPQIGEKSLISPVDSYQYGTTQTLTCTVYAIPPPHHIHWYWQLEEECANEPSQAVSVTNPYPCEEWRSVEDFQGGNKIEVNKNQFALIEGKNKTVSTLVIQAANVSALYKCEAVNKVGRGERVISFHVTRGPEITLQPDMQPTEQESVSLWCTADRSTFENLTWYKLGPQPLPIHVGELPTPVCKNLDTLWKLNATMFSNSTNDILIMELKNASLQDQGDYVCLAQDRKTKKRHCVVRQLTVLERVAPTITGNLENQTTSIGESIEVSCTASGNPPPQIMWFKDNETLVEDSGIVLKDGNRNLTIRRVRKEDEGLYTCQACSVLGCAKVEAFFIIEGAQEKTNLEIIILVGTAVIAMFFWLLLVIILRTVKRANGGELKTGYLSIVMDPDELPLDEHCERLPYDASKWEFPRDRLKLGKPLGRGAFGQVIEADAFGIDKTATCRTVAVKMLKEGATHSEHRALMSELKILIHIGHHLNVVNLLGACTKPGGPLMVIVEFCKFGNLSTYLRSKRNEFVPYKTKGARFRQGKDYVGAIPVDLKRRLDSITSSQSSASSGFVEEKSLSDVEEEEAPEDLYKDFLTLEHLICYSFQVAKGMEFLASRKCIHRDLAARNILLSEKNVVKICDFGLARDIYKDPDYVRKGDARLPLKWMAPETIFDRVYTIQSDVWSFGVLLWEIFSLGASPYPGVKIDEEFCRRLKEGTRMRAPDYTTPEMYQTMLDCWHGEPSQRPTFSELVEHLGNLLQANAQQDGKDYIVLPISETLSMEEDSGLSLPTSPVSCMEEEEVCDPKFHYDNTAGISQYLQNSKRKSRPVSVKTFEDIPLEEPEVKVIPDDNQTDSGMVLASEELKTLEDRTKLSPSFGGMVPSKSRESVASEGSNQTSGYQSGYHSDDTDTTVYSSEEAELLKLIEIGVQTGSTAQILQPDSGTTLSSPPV

[1] = Table 3, selective inhibitors of VEGFR2

## C[C@@H](Nc1ncnc2[nH]c(-c3ccc(CNCCCCCC(=O)NO)cc3)cc12)c1ccccc1 [compound 24900643]
Any gene target
  IC50: 100 nM
VEGFR2
  IC50: 100 nM

## O=C(CCCCCN1CCN(Cc2ccc(-c3cc4c(NCc5ccccc5)ncnc4[nH]3)cc2)CC1)NO [compound 24900714]
Any gene target; Table 3
  IC50: 100 nM
VEGFR2; [1]
  IC50: 100 nM

## C[C@@H](Nc1ncnc2[nH]c(-c3ccc(C(=O)NO)cc3)cc12)c1ccccc1 [compound 24900715]
Any gene target; Table 3
  IC50: 100 nM
VEGFR2; [1]
  IC50: 100 nM

## C[C@@H](Nc1ncnc2[nH]c(-c3ccc(C(=O)NO)cc3)cc12)c1ccc(F)cc1 [compound 24900772]
Any gene target; Table 3
  IC50: 100 nM
VEGFR2; [1]
  IC50: 100 nM

## Cc1nn(C)c2cc(N(C)c3ccnc(Nc4cccc(S(N)(=O)=O)c4)n3)ccc12 [compound 24949545]
Any gene target
  IC50: 1000 nM
VEGFR2
  IC50: 36 nM

## CN(c1ccc2cn(C)nc2c1)c1ccnc(Nc2cccc(S(N)(=O)=O)c2)n1 [compound 24949548]
Any gene target
  IC50: 2900 nM
VEGFR2
  IC50: 7.6 nM

## Cc1c2ccc(N(C)c3ccnc(Nc4cccc(S(N)(=O)=O)c4)n3)cc2nn1C [compound 24949700]
Any gene target
  IC50: 1400 nM
VEGFR2
  IC50: 5.6 nM

## Cc1nc2ccc(N(C)c3ccnc(Nc4cccc(S(N)(=O)=O)c4)n3)cc2n1C [compound 24949704]
Any gene target
  IC50: 1700 nM
VEGFR2
  IC50: 63 nM

## O=C(CCCCCCCNC(=O)c1cc(Oc2ccc(NC(=O)Nc3ccc(Cl)c(C(F)(F)F)c3)cc2)ccn1)NO [compound 25071593]
Any gene target
  IC50: 100 nM
VEGFR2
  IC50: 100 nM

## O=C(CCCCCCNCc1cc(Oc2ccc(NC(=O)Nc3ccc(Cl)c(C(F)(F)F)c3)cc2)ccn1)NO [compound 25072217]
Any gene target
  IC50: 100 nM
VEGFR2
  IC50: 100 nM

## O=C(CCCCCCCNCc1cc(Oc2ccc(NC(=O)Nc3ccc(Cl)c(C(F)(F)F)c3)cc2)ccn1)NO [compound 25072218]
Any gene target
  IC50: 100 nM
VEGFR2
  IC50: 100 nM

## CSc1cn2c(-c3cn[nH]c3)cnc2c(Nc2cc(C)ns2)n1 [compound 25094210]
Any gene target
  IC50: 167 nM
VEGFR2
  IC50: 36 nM

## Cc1cn2c(-c3cn[nH]c3)cnc2c(Nc2cc(CN3CCCCC3)ns2)n1 [compound 25144294]
Any gene target
  IC50: 12 nM
VEGFR2
  IC50: 4 nM

## CN(c1ccc(F)c(NC(=O)c2cccc(OC(C)(C)C#N)c2Cl)c1)c1ccc2nc(NC(=O)C3CC3)sc2n1 [compound 25206346]
Any gene target
  IC50: 23 nM
VEGFR2
  IC50: 1.2 nM

## CCN1CCN(Cc2ccc(NC(=O)c3ccc(C)c(NC(=O)c4cncc(-c5cccs5)c4)c3)cc2C(F)(F)F)CC1 [compound 42628503]
Any gene target; Table 3
  IC50: 500 nM
VEGFR2; [1]
  IC50: 500 nM

## O=C(Nc1cccc(-c2cncc3ccccc23)c1)c1ccccc1NCc1ccncc1 [compound 44368815]
Any gene target
  IC50: 52 nM
VEGFR2
  IC50: 1.16 nM

## c1cnc(NCc2ccncc2)c(-c2nnc(Nc3ccc4c(c3)OCCO4)o2)c1 [compound 44408215]
Any gene target
  IC50: 29900 nM
VEGFR2
  IC50: 170 nM

## CNC(=O)Nc1ccc(CNc2ncsc2C(=O)Nc2ccc3c(c2)OC(F)(F)O3)cn1 [compound 44442418]
Any gene target
  IC50: 5 nM
VEGFR2
  IC50: 3 nM

## CO/N=C(\C)c1ccc2c(c1)c1c3c(c4c(c1n2CC(C)C)CCc1nn(C)cc1-4)C(=O)NC3 [compound 44447890]
Any gene target
  IC50: 8 nM
VEGFR2
  IC50: 4 nM

## c1ccc2sc(-c3ccc(Nc4ncnc5[nH]ccc45)cc3)nc2c1 [compound 44564789]
Any gene target
  IC50: 1300 nM
VEGFR2
  IC50: 1200 nM

## CC1(C)CC(NC(=O)c2cccc(-c3cc4nccc(Nc5cccc(O)c5)n4n3)c2)CC(C)(C)N1[O] [compound 46179972]
Any gene target
  IC50: 5 nM
VEGFR2
  IC50: 3.3 nM

## O=C(Nc1ccccc1)Nc1ccc2c(c1)NC(=O)/C2=C\c1ccc[nH]1 [compound 46182735]
Any gene target
  IC50: 2.3 nM
VEGFR2
  IC50: 1 nM

## COc1cc2c(Nc3ccc(-c4nc5ccccc5s4)cc3)ncnc2cc1OCCCN1CCN(C)CC1 [compound 46225612]
Any gene target
  IC50: 14 nM
VEGFR2
  IC50: 12 nM

## COc1cc(C2=C(c3c[nH]c4ccc(I)cc34)C(=O)NC2=O)cc(OC)c1OC [compound 46231220]
Any gene target
  IC50: 29.5 nM
VEGFR2
  IC50: 24.9 nM

## Cc1ccc(C(=O)Nc2cccc(C(F)(F)F)c2)cc1Nc1nc2ccccc2n1-c1cc(NCCC#N)ncn1 [compound 46879446]
Any gene target
  IC50: 275 nM
VEGFR2
  IC50: 245 nM

## CCNC(=O)Nc1ccc(Oc2ncccc2-c2ccnc(NC)n2)c2ccccc12 [compound 46890315]
Any gene target
  IC50: 130 nM
VEGFR2
  IC50: 48 nM

## COc1ccc(NC(=O)Nc2ccc3c(c2)NC(=O)/C3=C\c2[nH]cc(C(=O)O)c2C)cc1 [compound 46898039]
Any gene target; Table 3
  IC50: 0.5 nM
VEGFR2; [1]
  IC50: 0.5 nM

## COc1cc2c(Nc3cc(O)c(C)cc3F)ncnc2cc1OCC1CCN(C)CC1 [compound 49860186]
Any gene target
  IC50: 25 nM
VEGFR2
  IC50: 7 nM

## COc1cc2c(Nc3ccc(Br)cc3F)ncnc2cc1OCCCN1CCN(C)CC1 [compound 49860190]
Any gene target
  IC50: 30 nM
VEGFR2
  IC50: 9 nM

## CCN(Cc1cc(Nc2nc(C)cn3c(-c4cn[nH]c4)cnc23)sn1)C(C)(C)CO [compound 53317913]
Any gene target; Table 3
  IC50: 1 nM
VEGFR2; [1]
  IC50: 1 nM

## COc1cc(O)c2c(c1)CCC[C@H](O)CC(=O)/C=C\C[C@H](C)OC2=O [compound 53324451]
Any gene target
  IC50: 7.23 nM
VEGFR2
  IC50: 5.8 nM

## COc1cc2c(Nc3cc(Cl)c(Cl)cc3F)ncnc2cc1OC[C@@H]1CN2CCC[C@H]2CO1 [compound 53630919]
Any gene target; Table 3
  IC50: 50 nM
VEGFR2; [1]
  IC50: 50 nM

## COc1cc2c(Nc3ccc(Cl)c(Cl)c3F)ncnc2cc1OC[C@@H]1CN2CCC[C@H]2C(=O)N1C [compound 53630920]
Any gene target; Table 3
  IC50: 50 nM
VEGFR2; [1]
  IC50: 50 nM

## COc1cc2c(Nc3ccc(Cl)c(Cl)c3F)ncnc2cc1OC[C@@H]1CN2CCC[C@H]2C(=O)N1 [compound 53630923]
Any gene target; Table 3
  IC50: 50 nM
VEGFR2; [1]
  IC50: 50 nM

## COc1cc2c(Nc3ccc(Cl)c(Cl)c3F)ncnc2cc1OC[C@@H]1CN2CCC[C@@H]2C(=O)N1 [compound 53630924]
Any gene target; Table 3
  IC50: 50 nM
VEGFR2; [1]
  IC50: 50 nM

## COc1cc2c(Nc3ccc(Cl)c(Cl)c3)ncnc2cc1OCc1nc2c(s1)CNCC2 [compound 53630967]
Any gene target; Table 3
  IC50: 50 nM
VEGFR2; [1]
  IC50: 50 nM

## COc1cc2c(Nc3ccc(Cl)c(Cl)c3)ncnc2cc1OCc1csc(C2CCNCC2)n1 [compound 53630972]
Any gene target; Table 3
  IC50: 50 nM
VEGFR2; [1]
  IC50: 50 nM

## CN1CCC(COc2ccc3c(Nc4ccc(NC(=O)Nc5cccc(F)c5)cc4)ncnc3c2)CC1 [compound 56835147]
Any gene target
  IC50: 9.6 nM
VEGFR2
  IC50: 5.5 nM

## Nc1c(-c2ccc(F)cc2)c(-c2ccncc2)nn1-c1c(Cl)cc(Cl)cc1Cl [compound 56924694]
Any gene target
  IC50: 31 nM
VEGFR2
  IC50: 29 nM

## COc1ccc(-c2cnc3cncc(Nc4ccc(N5CCCCC5)cc4)c3n2)cc1 [compound 57332844]
Any gene target
  IC50: 2270 nM
VEGFR2
  IC50: 2050 nM

## COc1cc2c(Nc3cc(Cl)c(Cl)cc3F)ncnc2cc1OCC1CN(C)CCO1 (centres unmarked) [compound 57802547]
Any gene target; Table 3
  IC50: 50 nM
VEGFR2; [1]
  IC50: 50 nM

## COc1cc2c(Nc3ccc(C)c(Br)c3)ncnc2cc1OCC1CN(C)CCO1 (centres unmarked) [compound 57802550]
Any gene target; Table 3
  IC50: 50 nM
VEGFR2; [1]
  IC50: 50 nM

## COc1cc2c(Nc3ccc(Cl)c(Cl)c3)ncnc2cc1OCC1CN(S(C)(=O)=O)CCCO1 (centres unmarked) [compound 57802556]
Any gene target; Table 3
  IC50: 50 nM
VEGFR2; [1]
  IC50: 50 nM

## COc1cc2c(Nc3ccc(Br)c(F)c3F)ncnc2cc1OCC1CN(C)CCO1 (centres unmarked) [compound 57802560]
Any gene target; Table 3
  IC50: 50 nM
VEGFR2; [1]
  IC50: 50 nM

## CCN=C(NC#N)N1CCOC(COc2cc3ncnc(Nc4ccc(Cl)c(Cl)c4)c3cc2OC)C1 (centres unmarked) [compound 57802565]
Any gene target; Table 3
  IC50: 50 nM
VEGFR2; [1]
  IC50: 50 nM

## COc1cc2c(Nc3ccc(Br)c(Cl)c3F)ncnc2cc1OCC1CN(C)CCO1 (centres unmarked) [compound 57802566]
Any gene target; Table 3
  IC50: 50 nM
VEGFR2; [1]
  IC50: 50 nM

## COc1cc2c(Nc3ccc(Cl)c(Cl)c3F)ncnc2cc1OC[C@@H]1CN(C)CC(=O)N1C [compound 57802574]
Any gene target; Table 3
  IC50: 50 nM
VEGFR2; [1]
  IC50: 50 nM

## CC(C)Oc1cc2c(Nc3ccc(Cl)c(Cl)c3)ncnc2cc1OCC1CNCCO1 (centres unmarked) [compound 57802576]
Any gene target; Table 3
  IC50: 50 nM
VEGFR2; [1]
  IC50: 50 nM

## COc1cc2c(Nc3ccc(Br)c(Cl)c3Cl)ncnc2cc1OCC1CN(C)C(C)(C)CO1 (centres unmarked) [compound 57802578]
Any gene target
  IC50: 50 nM
VEGFR2
  IC50: 50 nM

## COc1cc2c(Nc3ccc(Cl)c(Cl)c3)ncnc2cc1OC[C@@H]1CN2CCC[C@@H]2CO1 [compound 57802582]
Any gene target; Table 3
  IC50: 50 nM
VEGFR2; [1]
  IC50: 50 nM

## COc1cc2c(Nc3ccc(Cl)c(Cl)c3C)ncnc2cc1OCC1CN(C)CCO1 (centres unmarked) [compound 57802584]
Any gene target; Table 3
  IC50: 50 nM
VEGFR2; [1]
  IC50: 50 nM

## COc1cc2c(Nc3ccc(Cl)c(Cl)c3F)ncnc2cc1OCC1CN(C)CCO1 (centres unmarked) [compound 57802591]
Any gene target; Table 3
  IC50: 50 nM
VEGFR2; [1]
  IC50: 50 nM

## COc1cc2c(Nc3cc(Cl)c(Cl)c(Cl)c3)ncnc2cc1OCC1CN(C)CCO1 (centres unmarked) [compound 57802593]
Any gene target; Table 3
  IC50: 50 nM
VEGFR2; [1]
  IC50: 50 nM

## COc1cc2c(Nc3ccc(Cl)c(Cl)c3)ncnc2cc1OCC1CN(CC(N)=O)CCO1 (centres unmarked) [compound 57802603]
Any gene target; Table 3
  IC50: 50 nM
VEGFR2; [1]
  IC50: 50 nM

## COc1cc2c(Nc3ccc(Cl)c(Cl)c3)ncnc2cc1OCc1nc(N2CCN(C)CC2)no1 [compound 57802605]
Any gene target; Table 3
  IC50: 50 nM
VEGFR2; [1]
  IC50: 50 nM

## COc1cc2c(Nc3ccc(Cl)c(Cl)c3)ncnc2cc1OCc1csc(C2CCCN(C)C2)n1 (centres unmarked) [compound 57802607]
Any gene target; Table 3
  IC50: 50 nM
VEGFR2; [1]
  IC50: 50 nM

## COc1cc2c(Nc3ccc(Cl)c(Cl)c3)ncnc2cc1OCC1CN(CCCCCC#N)CCO1 (centres unmarked) [compound 57802611]
Any gene target; Table 3
  IC50: 50 nM
VEGFR2; [1]
  IC50: 50 nM

## CCN1CCCOC(COc2cc3ncnc(Nc4ccc(Cl)c(Cl)c4)c3cc2OC)C1 (centres unmarked) [compound 57802623]
Any gene target; Table 3
  IC50: 50 nM
VEGFR2; [1]
  IC50: 50 nM

## COc1cc2c(Nc3ccc(Cl)c(Cl)c3)ncnc2cc1OCCC1CNC(C)(C)CO1 (centres unmarked) [compound 57802637]
Any gene target
  IC50: 50 nM
VEGFR2
  IC50: 50 nM

## COc1cc2c(Nc3ccc(Cl)c(Cl)c3F)ncnc2cc1OC[C@@H]1CN(C)CC(=O)N1 [compound 57802639]
Any gene target; Table 3
  IC50: 50 nM
VEGFR2; [1]
  IC50: 50 nM

## COc1cc2c(Nc3ccc(Cl)c(Cl)c3)ncnc2cc1OCC1CC1 [compound 57802643]
Any gene target
  IC50: 50 nM
VEGFR2
  IC50: 50 nM
